In patent publication US7550469B2, “Heterocyclic amide derivatives and their use as dopamine D3 receptor ligands” (Aventis Pharmaceuticals Inc., priority 2001, dated 2009):
Read-outs that look alike come from different tables or passages of the source.

Biological target: T1, cloned human dopamine D3 receptors (Homo sapiens, UniProt P35462)
T1 construct: expressed in transfected cells; membrane homogenate
Assay: [N-Methyl-3H]Spiroperidol binding to cloned human dopamine D3 receptors (Protocol 1)
Summary of the method: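 Membranes from CHO cells stably expressing cloned human D3 receptor were used for [N-methyl-3H]spiroperidol (60-90 Ci/mmol) binding. Assay buffer was 0.05 M Tris HCl pH 7.7 with 120 mM NaCl, 5 mM KCl, 2 mM CaCl2 and 1 mM MgCl2, optionally 0.1% ascorbic acid; total ligand concentration calculated from added CPM.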

[1] = the 13th table, unit inferred, read-out: D3Ki
[2] = the 14th table, read-out: D3 Ki

T1 sequence (P35462 whole entry): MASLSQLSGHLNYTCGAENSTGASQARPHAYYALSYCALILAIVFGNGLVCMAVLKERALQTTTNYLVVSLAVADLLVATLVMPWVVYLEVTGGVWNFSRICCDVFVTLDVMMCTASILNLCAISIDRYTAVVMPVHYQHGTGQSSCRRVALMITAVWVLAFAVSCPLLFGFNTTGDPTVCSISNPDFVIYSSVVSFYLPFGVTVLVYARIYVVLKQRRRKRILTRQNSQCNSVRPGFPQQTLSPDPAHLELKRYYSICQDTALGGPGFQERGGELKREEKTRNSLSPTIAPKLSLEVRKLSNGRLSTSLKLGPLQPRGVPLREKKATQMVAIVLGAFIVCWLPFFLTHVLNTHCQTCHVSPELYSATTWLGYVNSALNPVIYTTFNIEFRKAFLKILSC

Ki (read-out: D3K1) [µM] | Ki [1] [µM] | Ki [2] [µM] | Ki (Table 2, read-out: D3K1) [µM] | Structure (SMILES)
0.0036 |  |  |  | O=C(NCCCCN1CCN(c2c(Cl)sc3cc(F)ccc23)CC1)c1ccc([N+](=O)[O-])cc1 [compound 815061]
0.0041 |  |  |  | COc1ccc(C(=O)NCCCCN2CCN(c3c(Cl)sc4cc(F)ccc34)CC2)cc1OC [compound 815062]
0.0063 |  |  |  | O=C(NCCCCN1CCN(c2c(Cl)sc3cc(F)ccc23)CC1)c1ccc(Br)cc1 [compound 815063]
0.0019 |  |  |  | O=C(NCCCCN1CCN(c2c(Cl)sc3cc(F)ccc23)CC1)c1cc2ccccc2s1 [compound 815064]
0.0438 |  |  |  | O=C(NCCCCN1CCN(c2c(Cl)sc3cc(F)ccc23)CC1)c1ccccc1C(F)(F)F [compound 815065]
0.0287 |  |  |  | COc1ccccc1C(=O)NCCCCN1CCN(c2c(Cl)sc3cc(F)ccc23)CC1 [compound 815066]
0.0201 |  |  |  | O=C(NCCCCN1CCN(c2c(Cl)sc3cc(F)ccc23)CC1)c1ccc(C(F)(F)F)cc1 [compound 815067]
0.0049 |  |  |  | O=C(NCCCCN1CCN(c2c(Cl)sc3cc(F)ccc23)CC1)c1ccco1 [compound 815068]
0.015 |  |  |  | O=C(NCCCCN1CCN(c2c(Cl)sc3cc(F)ccc23)CC1)c1c(F)cccc1F [compound 815069]
0.0344 |  |  |  | O=C(NCCCCN1CCN(c2c(Cl)sc3cc(F)ccc23)CC1)c1ccccc1Br [compound 815070]
0.0072 |  |  |  | O=C(NCCCCN1CCN(c2c(Cl)sc3cc(F)ccc23)CC1)C1CCCC1 [compound 815071]
 | 0.371 |  |  | O=C(NCCCCN1CCC(c2noc3ccsc23)CC1)c1cc2ccccc2s1 [compound 815147]
 | 0.136 |  |  | O=C(NCCCCN1CCC(c2noc3ccsc23)CC1)c1ccc(Cl)cc1 [compound 815151]
 | 0.158 |  |  | CCOc1ccc(C(=O)NCCCCN2CCC(c3noc4ccsc34)CC2)cc1 [compound 815152]
0.032 |  |  |  | COc1cc(OC)cc(C(=O)NCCCCN2CCN(c3csc4cc(C(F)(F)F)ccc34)CC2)c1 [compound 815543]
0.0044 |  |  |  | O=C(NCCCCN1CCN(c2csc3cc(C(F)(F)F)ccc23)CC1)c1ccc(-c2ccccc2)cc1 [compound 815547]
0.0021 |  |  |  | O=C(NCCCCN1CCN(c2csc3cc(C(F)(F)F)ccc23)CC1)c1ccc([N+](=O)[O-])cc1 [compound 815549]
0.0069 |  |  |  | COc1ccc(C(=O)NCCCCN2CCN(c3csc4cc(C(F)(F)F)ccc34)CC2)cc1OC [compound 815550]
0.14 |  |  |  | CCCCCOc1ccc(C(=O)NCCCCN2CCN(c3csc4cc(C(F)(F)F)ccc34)CC2)cc1 [compound 815552]
0.041 |  |  |  | O=C(NCCCCN1CCN(c2csc3cc(C(F)(F)F)ccc23)CC1)c1ccccc1C(F)(F)F [compound 815553]
0.023 |  |  |  | O=C(NCCCCN1CCN(c2csc3cc(C(F)(F)F)ccc23)CC1)c1ccccc1Br [compound 815558]

Ki (read-out: D3K1) [µM] | Ki [1] [µM] | Ki [2] [µM] | Ki (Table 2, read-out: D3K1) [µM] | Structure (SMILES)
0.0135 |  |  |  | O=C(NCCCCN1CCN(c2csc3cc(C(F)(F)F)ccc23)CC1)C1CCCC1 [compound 815559]
0.022 |  |  |  | CCOc1ccc(C(=O)NCCCCN2CCN(c3c(Cl)sc4cc(C(F)(F)F)ccc34)CC2)cc1 [compound 815560]
0.041 |  |  |  | O=C(NCCCCN1CCN(c2c(Cl)sc3cc(C(F)(F)F)ccc23)CC1)c1ccc(F)cc1F [compound 815561]
0.021 |  |  |  | O=C(NCCCCN1CCN(c2c(Cl)sc3cc(C(F)(F)F)ccc23)CC1)c1ccc2c(c1)OCO2 [compound 815563]
0.159 |  |  |  | CCCCOc1ccc(C(=O)NCCCCN2CCN(c3c(Cl)sc4cc(C(F)(F)F)ccc34)CC2)cc1 [compound 815564]
0.032 |  |  |  | O=C(NCCCCN1CCN(c2c(Cl)sc3cc(C(F)(F)F)ccc23)CC1)c1cccs1 [compound 815566]
0.03 |  |  |  | O=C(NCCCCN1CCN(c2c(Cl)sc3cc(C(F)(F)F)ccc23)CC1)c1ccc(Cl)cc1 [compound 815568]
0.013 |  |  |  | O=C(NCCCCN1CCN(c2c(Cl)sc3cc(C(F)(F)F)ccc23)CC1)c1ccc([N+](=O)[O-])cc1 [compound 815569]
0.03 |  |  |  | COc1ccc(C(=O)NCCCCN2CCN(c3c(Cl)sc4cc(C(F)(F)F)ccc34)CC2)cc1OC [compound 815570]
0.0342 |  |  |  | O=C(NCCCCN1CCN(c2c(Cl)sc3cc(C(F)(F)F)ccc23)CC1)c1ccc(Br)cc1 [compound 815571]
0.035 |  |  |  | O=C(NCCCCN1CCN(c2c(Cl)sc3cc(C(F)(F)F)ccc23)CC1)c1ccccc1C(F)(F)F [compound 815573]
0.053 |  |  |  | COc1ccccc1C(=O)NCCCCN1CCN(c2c(Cl)sc3cc(C(F)(F)F)ccc23)CC1 [compound 815574]
0.05 |  |  |  | O=C(NCCCCN1CCN(c2c(Cl)sc3cc(C(F)(F)F)ccc23)CC1)c1ccc(C(F)(F)F)cc1 [compound 815575]
0.063 |  |  |  | O=C(NCCCCN1CCN(c2c(Cl)sc3cc(C(F)(F)F)ccc23)CC1)c1ccco1 [compound 815576]
0.095 |  |  |  | O=C(NCCCCN1CCN(c2c(Cl)sc3cc(C(F)(F)F)ccc23)CC1)c1c(F)cccc1F [compound 815577]
0.117 |  |  |  | O=C(NCCCCN1CCN(c2c(Cl)sc3cc(C(F)(F)F)ccc23)CC1)c1ccccc1Br [compound 815578]
0.104 |  |  |  | O=C(NCCCCN1CCN(c2c(Cl)sc3cc(C(F)(F)F)ccc23)CC1)C1CCCC1 [compound 815579]
0.163 |  | 0.163 |  | COc1ccc(C(=O)N[C@@H](CO)CCCN2CCN(c3csc4cc(C(F)(F)F)ccc34)CC2)cc1OC [compound 815665]
0.203 |  | 0.203 |  | CC(=O)Nc1ccc(C(=O)N[C@@H](CO)CCCN2CCN(c3csc4cc(C(F)(F)F)ccc34)CC2)cc1 [compound 815667]
0.15 |  | 0.15 |  | COc1ccc(C(=O)N[C@@H](CO)CCCN2CCN(c3csc4cc(C(F)(F)F)ccc34)CC2)cc1 [compound 815668]
0.192 |  | 0.192 |  | O=C(N[C@@H](CO)CCCN1CCN(c2csc3cc(C(F)(F)F)ccc23)CC1)c1ccc(-c2ccccc2)cc1 [compound 815670]

Ki (read-out: D3K1) [µM] | Ki [1] [µM] | Ki [2] [µM] | Ki (Table 2, read-out: D3K1) [µM] | Structure (SMILES)
0.309 |  | 0.309 |  | Cc1ccc(C(=O)N[C@@H](CO)CCCN2CCN(c3csc4cc(C(F)(F)F)ccc34)CC2)cc1 [compound 815671]
0.314 |  | 0.314 | 0.314 | O=C(N[C@@H](CO)CCCN1CCN(c2csc3cc(C(F)(F)F)ccc23)CC1)c1cc2ccccc2[nH]1 [compound 815674]
0.224 |  | 0.224 | 0.224 | O=C(N[C@@H](CO)CCCN1CCN(c2csc3cc(C(F)(F)F)ccc23)CC1)c1ccc2[nH]ccc2c1 [compound 815676]
0.297 |  | 0.297 | 0.297 | O=C(N[C@@H](CO)CCCN1CCN(c2csc3cc(C(F)(F)F)ccc23)CC1)c1cc2ccccc2o1 [compound 815677]
0.129 |  | 0.129 | 0.129 | O=C(N[C@@H](CO)CCCN1CCN(c2csc3cc(C(F)(F)F)ccc23)CC1)c1ccc(Br)cc1 [compound 815679]
0.197 |  | 0.197 | 0.197 | CCn1cc(C(=O)N[C@@H](CO)CCCN2CCN(c3csc4cc(C(F)(F)F)ccc34)CC2)c(=O)c2ccc(C)nc21 [compound 815680]
0.261 |  | 0.261 | 0.261 | CSc1ncccc1C(=O)N[C@@H](CO)CCCN1CCN(c2csc3cc(C(F)(F)F)ccc23)CC1 [compound 815681]
0.208 |  | 0.208 | 0.208 | O=C(NC(CO)CCCN1CCN(c2csc3cc(C(F)(F)F)ccc23)CC1)c1cc2ccccc2s1 (stereo not drawn) [compound 815684]
0.186 |  | 0.186 | 0.186 | O=C(NC(CO)CCCN1CCN(c2csc3cc(C(F)(F)F)ccc23)CC1)c1ccc2c(c1)S(=O)(=O)c1ccccc1C2=O (stereo not drawn) [compound 815685]
0.275 |  | 0.275 | 0.275 | O=C(NC(CO)CCCN1CCN(c2csc3cc(C(F)(F)F)ccc23)CC1)c1cc2ccc(Cl)cc2s1 (stereo not drawn) [compound 815686]
0.19 |  | 0.19 | 0.19 | O=C(NC(CO)CCCN1CCN(c2csc3cc(C(F)(F)F)ccc23)CC1)c1ccccc1C(F)(F)F (stereo not drawn) [compound 815688]
0.225 |  | 0.225 | 0.225 | COc1ccc(C(=O)NC(CO)CCCN2CCN(c3csc4cc(C(F)(F)F)ccc34)CC2)cc1OC (stereo not drawn) [compound 815689]
0.245 |  | 0.245 | 0.245 | O=C(NC(CO)CCCN1CCN(c2csc3cc(C(F)(F)F)ccc23)CC1)c1ccc(Cl)cc1 (stereo not drawn) [compound 815690]
0.241 |  | 0.241 | 0.241 | CC(=O)Nc1ccc(C(=O)N[C@H](CO)CCCN2CCN(c3csc4cc(C(F)(F)F)ccc34)CC2)cc1 [compound 815691]
0.191 |  | 0.191 | 0.191 | COc1ccc(C(=O)N[C@H](CO)CCCN2CCN(c3csc4cc(C(F)(F)F)ccc34)CC2)cc1 [compound 815692]
0.197 |  | 0.197 | 0.197 | O=C(N[C@H](CO)CCCN1CCN(c2csc3cc(C(F)(F)F)ccc23)CC1)c1ccc(-c2ccccc2)cc1 [compound 815694]
0.198 |  | 0.198 | 0.198 | Cc1ccc(C(=O)N[C@H](CO)CCCN2CCN(c3csc4cc(C(F)(F)F)ccc34)CC2)cc1 [compound 815695]
0.871 |  | 0.871 | 0.871 | O=C(N[C@H](CO)CCCN1CCN(c2csc3cc(C(F)(F)F)ccc23)CC1)c1ccco1 [compound 815696]
0.294 |  | 0.294 | 0.294 | O=C(N[C@H](CO)CCCN1CCN(c2csc3cc(C(F)(F)F)ccc23)CC1)c1ccc2ccccc2c1 [compound 815697]
0.329 |  | 0.329 | 0.329 | O=C(N[C@H](CO)CCCN1CCN(c2csc3cc(C(F)(F)F)ccc23)CC1)c1cc2ccccc2[nH]1 [compound 815698]
0.128 |  | 0.128 | 0.128 | O=C(N[C@H](CO)CCCN1CCN(c2csc3cc(C(F)(F)F)ccc23)CC1)c1ccc2[nH]ccc2c1 [compound 815700]
